Experimental data published in patent US6974839B2, “Method of delaying ejaculation” (DMI BioSciences, Inc., priority 2001, dated 2005).
Where a name gives a salt, the structure may show the parent alone.

Experiments:
normal subject = experiment: Delay of ejaculation after an oral dose taken 30–60 minutes prior to sexual intercourse; type: in vivo, human
From the text: […]. […] […]

μ-opioid receptors = conditions: cited from earlier work
animal models = conditions: cited from earlier work

Row | Compound | delay of ejaculation (normal subject; 25 mg orally, 30–60 minutes prior to sexual intercourse, normal subject) | ejaculation/orgasm achieved (normal subject; 100 mg) | side effects associated with the dose (normal subject; doses of 50–100 mg) | affinity of binding to μ-opioid receptors (μ-opioid receptors) | potency in μ-opioid binding relative to tramadol (μ-opioid receptors) | potency in producing analgesia relative to tramadol (animal models)
1 | COc1cccc([C@]2(O)CCCC[C@H]2CN(C)C)c1 (racemic) [tramadol hydrochloride, (±)cis-2-[(dimethylamino)methyl]-1-(3-methoxyphenyl)-cyclohexanol hydrochloride] | 10 to 15 min | sometimes ejaculation/orgasm was not achieved | drowsiness, lightheadedness, dry mouth and a sense of slight euphoria (opioid effect) |  |  | 
2 | CN(C)C[C@H]1CCCC[C@]1(O)c1cccc(O)c1 [M1] |  |  |  | higher affinity binding | 200 times | up to 6 times
3 | COc1cccc(C2(O)CCCCC2CN(C)C)c1 (stereo not shown) [tramadol, 2-[(dimethylamino)methyl]-1-(3-methoxyphenyl)-cyclohexanol] |  |  |  | low affinity binding |  | 
